The record followed here is US20230141403A1 (Hoffmann-La Roche Inc., priority 2020, published 2023).

This assay deals with Acinetobacter baumannii ATCC17961. The assay is described as follows: Antimicrobial susceptibility testing: 90% growth inhibitory concentration (IC90) determination. It counts as cell-based. On the procedure:
Antimicrobial Susceptibility Testing:
90% Growth Inhibitory Concentration (IC90) Determination
The in vitro antimicrobial activity of the compounds was determined according to the following procedure:
The assay used a 10-points Iso-Sensitest broth medium to measure quantitatively the in vitro activity of the compounds against Acinetobacter baumannii ATCC17961 or ATCC17978.
Stock compounds in DMSO were serially twofold diluted (e.g. range from 50 to 0.097 μM final concentration) in 384 wells microtiter plates and inoculated with 49 μl the bacterial suspension in Iso-Sensitest medium to have a final cell concentration of ˜5×10^(5) CFU/ml in a final volume/well of 50 ul/well. Microtiter plates were incubated at 35±2° C.
Bacterial cell growth was determined with the measurement of optical density at λ=600 nm each 20 minutes over a time course of 16h. Growth inhibition was calculated during the logarithmic growth of the bacterial cells with determination of the concentration inhibiting 50% (IC50) and 90% (IC90) of the growth.
Table 2 provides the 90% growth inhibitory concentrations (IC90) in micromoles per liter of the compounds of present invention obtained against the strain Acinetobacter baumannii ATCC17961.

Setting [1] is: 90% growth inhibitory concentration, Iso-Sensitest broth, optical density at 600 nm over 16h, 35±2° C., read-out: AB ATCC 17961 IC90.
The mark [2] stands for this setting: Acinetobacter baumannii, ATCC17961, 16 h, 90% growth inhibitory concentration, Iso-Sensitest broth, optical density at 600 nm over 16h, 35±2° C., read-out: AB ATCC 17961 IC90.
Setting [3] is: Acinetobacter baumannii, ATCC17961, 16 h, read-out: AB ATCC 17961 IC90 (uM).

The structures appear in SMILES notation. Where a name gives a salt, the structure may show the parent alone. Read-outs that look alike come from different tables or passages of the source.

As a reminder, the IC90 is the concentration at which the effect reaches the 90% level. On to `COc1ccc(-c2cnc3c(Nc4ccc(S(C)(=O)=NCCCNC(=O)[C@H]5C[C@H](O)CN5)c(C)c4)nccn23)c(F)c1F` (mixture of isomers) [Example 32, rac-(2R,4S)—N-(3-(((4-((3-(2,3-difluoro-4-methoxyphenyl)imidazo[1,2-a]pyrazin-8-yl)amino)-2-methylphenyl)(methyl)oxo)-l6-sulfaneylidene)amino)propyl)-4-hydroxypyrrolidine-2-carboxamide dihydrochloride], for which the IC90 under setting [1] is 0.17 µM.
For the molecule `COc1ccc(-c2cnc3c(Nc4ccc(S(C)(=O)=NCCCNC(=O)[C@@H]5C[C@@H](O)CN5)cc4)nccn23)c(F)c1F` (mixture of isomers) [Example 33, rac-(2R,4S)-N-(3-(((4-((3-(2,3-difluoro-4-methoxyphenyl)imidazo[1,2-a]pyrazin-8-yl)amino)phenyl) (methyl)(oxo)-16-sulfaneylidene)amino)propyl)-4-hydroxypyrrolidine-2-carboxamide dihydrochloride], under setting [2], the IC90 worked out at 0.49 µM.
On to `CN=S(C)(=O)c1ccc(Nc2nccn3c(-c4ccc(OC)c(F)c4F)cnc23)cc1C` (single isomer, unassigned; (+)) [Example 21, (+)-(4-((3-(2,3-difluoro-4-methoxyphenyl)imidazo[1,2-a]pyrazin-8-yl)amino)-2-methylphenyl)(methyl)(methylimino)-l6-sulfanone], for which, under setting [1], the IC90 is 0.26 µM.
Regarding `O=C1NCCN1c1ccc(Nc2nccn3c(-c4ccc(OC(F)F)cc4)cnc23)cc1` [Example 3, 1-[4-[[3-[4-(difluoromethoxy)phenyl]imidazo[1,2-a]pyrazin-8-yl]amino]phenyl]imidazolidin-2-one], the IC90 under setting [2] worked out at 0.72 µM.
Still for that read-out and setting: then `COc1ccc(-c2cnc3c(Nc4ccc5c(c4)CCC5NCCN)nccn23)c(F)c1F` (centres unmarked) [Example 6, N1-(2-aminoethyl)-N5-[3-(2,3-difluoro-4-methoxy-phenyl)imidazo[1,2-a]pyrazin-8-yl]indane-1,5-diamine formic acid], with 0.3 µM.
On the same count and under the same terms, the value for `COc1ccc(-c2cnc3c(Nc4ccc(NC(C)=O)cc4)nccn23)cc1` [Example 15, N-[4-[[3-(4-methoxyphenyl)imidazo[1,2-a]pyrazin-8-yl]amino]phenyl]acetamide] was 0.6 µM.
Take `CN=S(C)(=O)c1ccc(Nc2nccn3c(-c4ccc(OC)c(F)c4F)cnc23)cc1C` (centres unmarked) [Example 22, 3-(2,3-difluoro-4-methoxy-phenyl)-N-[4-(N,S-dimethylsulfonimidoyl)-3-methyl-phenyl]imidazo[l,2-a]pyrazin-8-amine]: under setting [1], the IC90 turned out to be 0.084 µM.
Regarding `CN=S(C)(=O)c1ccc(Nc2nccn3c(-c4ccc(OC)c(F)c4F)cnc23)cc1Cl` (centres unmarked) [Example 23, N-[3-chloro-4-(N,S-dimethylsulfonimidoyl)phenyl]-3-(2,3-difluoro-4-methoxy-phenyl)imidazo[1,2-a]pyrazin-8-amine], the 90% effect concentration (IC90) under setting [2] was determined as 0.11 µM.
As for `CCS(=O)(=NC)c1ccc(Nc2nccn3c(-c4ccc(OC)c(F)c4F)cnc23)cc1Cl` (centres unmarked) [Example 24, (2-chloro-4-((3-(2,3-difluoro-4-methoxyphenyl)imidazo[1,2-a]pyrazin-s-yl)amino)phenyl)(ethyl)(methylimino)-l6-sulfanone], the IC90 under setting [1] is 0.17 µM.
For the molecule `CN=S(C)(=O)c1ccc(Nc2nccn3c(-c4ccc(OCC#N)c(F)c4F)cnc23)cc1C` (centres unmarked) [Example 25, 2-(4-(8-((4-(N,S-dimethylsulfonimidoyl)-3-methylphenyl)amino)imidazo[1,2-a]pyrazin-3-yl)-2,3-difluorophenoxy) acetonitrile], the IC90 under setting [2] stood at 0.048 µM.
The same measure, in the same setting: the value for `CN=S(C)(=O)c1ccc(Nc2nccn3c(-c4ccc(OC)c(F)c4F)cnc23)cc1F` (centres unmarked) [Example 26, (4-((3-(2,3-difluoro-4-methoxyphenyl)imidazol[1,2-a]pyrazin-4-yl)amino)-2-fluorophenyl)(methyl)(methylimino)-l6-sulfanone] was 0.14 µM; that for `COc1ccc(-c2cnc3c(Nc4ccc([S@](C)(=O)=NCCCN)c(C)c4)nccn23)c(F)c1F` [Example 27, (−)-((3-aminopropyl)imino)(4-((3-(2,3-difluoro-4-methoxyphenyl)imidazo[1,2-a]pyrazin-8-yl)amino)-2-methylphenyl)(methyl)-l6-sulfanone] was 0.086 µM; that for `COc1ccc(-c2cnc3c(Nc4ccc([S@@](C)(=O)=NCCCN)c(C)c4)nccn23)c(F)c1F` [Example 28, (+)-((3-aminopropyl)imino) (4-((3-(2,3-difluoro-4-methoxyphenyl)imidazo[1,2-a]pyrazin-8-yl)amino)-2-methylphenyl) (methyl)-16-sulfanone] was 0.048 µM.
The same measure, in the same setting: the value for `COc1ccc(-c2cnc3c(Nc4ccc([S@](C)(=O)=NCCCNC(=O)[C@@H]5C[C@@H](O)CN5)c(C)c4)nccn23)c(F)c1F` [Example 29, (2S,4R)—N-(3-(((−)-(4-((3-(2,3-difluoro-4-methoxyphenyl)imidazo[1,2-a]pyrazin-s-yl)amino)-2-methylphenyl)(methyl)(oxo)-l6-sulfaneylidene)amino)propyl)-4-hydroxypyrrolidine-2-carboxamide] was 0.18 µM; that for `COc1ccc(-c2cnc3c(Nc4ccc([S@@](C)(=O)=NCCCNC(=O)[C@@H]5C[C@@H](O)CN5)c(C)c4)nccn23)c(F)c1F` [Example 30, (2S,4R)-N-(3-(((+)-(4-((3-(2,3-difluoro-4-methoxyphenyl)imidazo[1,2-a]pyrazin-8-yl)amino)-2-methylphenyl) (methyl)(oxo)-16-sulfaneylidene)amino)propyl)-4-hydroxypyrrolidine-2-carboxamide dihydrochloride] was 0.13 µM.
Still for that read-out and setting: the value for `CN=S(=O)(c1ccc(Nc2nccn3c(-c4ccc(OC)c(F)c4F)cnc23)cc1C)N(C)C` (stereo not drawn) [Example 31, 3-(2,3-difluoro-4-methoxy-phenyl)-N-[4-[S-(dimethylamino)-N-methyl-sulfonimidoyl]-3-methyl-phenyl]imidazo[1,2-a]pyrazin-8-amine] was 0.5 µM; that for `COc1ccc(-c2cnc3c(Nc4ccc(NC(=O)CN5CCNCC5)c(C)c4)nccn23)cc1` [Example 37, N-(4-((3-(4-methoxyphenyl)imidazo[1,2-a]pyrazin-8-yl)amino)-2-methylphenyl)-2-(piperazin-1-yl)acetamide] was 0.21 µM.
For the molecule `COc1ccc(-c2cnc3c(Nc4ccc(NC(C)=O)c(Cl)c4)nccn23)cc1` [Example 39, N-(2-chloro-4-((3-(4-methoxyphenyl)imidazo[1,2-a]pyrazin-8-yl)amino)phenyl)acetamide], the IC90 under setting [2] was determined as 0.1 µM.
Same read-out and setting: the value for `COc1ccc(-c2cnc3c(Nc4ccc(N5CCCC5=O)cc4)nccn23)cc1F` [Example 48, 1-(4-((3-(3-fluoro-4-methoxyphenyl)imidazo[1,2-a]pyrazin-8-yl)amino)phenyl)pyrrolidin-2-one] was 0.076 µM.
On the same count and under the same terms, the value for `NCCCCCC1CC(=O)N(c2ccc(Nc3nccn4c(-c5ccc(OC(F)F)cc5)cnc34)cc2)C1` (centres unmarked) [Example 62, 4-(5-aminopentyl)-1-(4-((3-(4-(difluoromethoxy)phenyl)imidazo[1,2-a]pyrazin-s-yl)amino)phenyl)pyrrolidin-2-one] was 0.094 µM; that for `NCCCCC1CC(=O)N(c2ccc(Nc3nccn4c(-c5ccc(OC(F)F)cc5)cnc34)cc2)C1` (centres unmarked) [Example 63, 4-(4-aminobutyl)-1-(4-((3-(4-(difluoromethoxy)phenyl)imidazo[1,2-a]pyrazin-8-yl)amino)phenyl)pyrrolidin-2-one] was 0.036 µM; that for `NCCOCC1CC(=O)N(c2ccc(Nc3nccn4c(-c5ccc(OC(F)F)cc5)cnc34)cc2)C1` (centres unmarked) [Example 64, 4-((2-aminoethoxy)methyl)-1-(4-((3-(4-(difluoromethoxy)phenyl)imidazo[1,2-a]pyrazin-8-yl)amino)phenyl)pyrrolidin-2-one] was 0.12 µM.
As for `CN=S(C)(=O)c1ccc(Nc2nccn3c(-c4ccc(OC)c(F)c4F)cnc23)cc1C` (centres unmarked) [Example 66, 3-(2,3-difluoro-4-methoxyphenyl)-N-(4-(N,S-dimethylsulfonimidoyl)-3-methylphenyl)imidazo[1,2-a]pyrazin-8-amine], under setting [1], the IC90 was found to be 0.16 µM.
With `COc1ccc(-c2cnc3c(Nc4ccc(S(C)(=O)=NCCCN)c(C)c4)nccn23)c(F)c1F` (centres unmarked) [Example 67, N-[4-[N-(3-aminopropyl)-S-methyl-sulfonimidoyl]-3-methyl-phenyl]-3-(2,3-difluoro-4-methoxy-phenyl)imidazo[1,2-a]pyrazin-8-amine; formic acid], the IC90 under setting [3] was found to be 0.12 µM.
Same read-out and setting: then `COc1ccc(-c2cnc3c(Nc4ccc(S(C)(=O)=NCCCN)cc4)nccn23)c(F)c1F` (centres unmarked) [Example 68, N-[4-[N-(3-aminopropyl)-S-methyl-sulfonimidoyl]phenyl]-3-(2,3-difluoro-4-methoxy-phenyl)imidazo[1,2-a]pyrazin-8-amine; formic acid], with 0.43 µM.
`CN=S(C)(=O)c1ccc(Nc2nccn3c(-c4ccc(OC)c(F)c4F)cnc23)cc1` (centres unmarked) [Example 69, 3-(2,3-difluoro-4-methoxyphenyl)-N-(4-(N,S-dimethylsulfonimidoyl)phenyl)imidazo[1,2-a]pyrazin-8-amine]: the IC90 under setting [2] stood at 0.2 µM.
